Experimental data reported in patent publication US9951093B2, “Chiral compounds substituted with phosphonic acid ester functions or phosphonic acid functions” (UGISense AG, priority 2006, dated 2018).

Test system: HIV-1-NL4-3
Test: p24 ELISA in H9 cells chronically infected with HIV-1-NL4-3 (antisense effect)
Assay type: cell-based
Conditions: H9 cells chronically infected with HIV-1-NL4-3, 5 days of incubation, p24 GAG ELISA
Description: H9 cells, chronically infected with strain HIV-1-NL4-3 are washed twice with a PBS buffer in order to remove viruses already produced. The cells are incubated in a 96-well plate with 10^4 cells/well, 4 wells per sample, in 200 μl culturing medium with or without a compound according to the invention or Ritonavir, respectively, at a distinct concentration. After 5 days of incubation, 40 μl of the cell suspension are taken from each of the 4 wells and inactivated with 40 μl Nonidet P-40.
The amount of the antigen p24 GAG is determined by a quantitative ELISA assay (Sandwich-ELISA-Biotin-Strepavidin-HRP) according to the standard method of the Institute for Applied Microbiology in Vienna. As a standard, samples with a known amount of p24 are used to investigate the standard calibration curve.
In this context, in the case of stereochemically non-uniform oligomers of the sequence […]-NH2 (SEQ ID NO: 1), a reduction of the amount of p24 of 21% can be observed compared with the untreated sample.

**Q.** How did the “reduction of the amount of p24 compared with the untreated sample” value turn out when “TCGCTGCCAAAGAGT-NH2: stereochemically non-uniform oligomers of the sequence TCGCTGCCAAAGAGT-NH2 (SEQ ID NO: 1), as in EP 1157031 (3'-NH2, stereochemically non-uniform, chemistry not fully specified)” was run?
**A.** Its value is 21%.
